SMILES strings stand for the structures.

Results on 40 compounds are retold here after US20050209278A1, “Piperidinyl- and piperazinyl-sulfonylmethyl hydroxamic acids and their use as protease inhibitors” (priority 2002, published 2005).

The target of one test is T1, MMP-2 (Homo sapiens, UniProt P08253).
T1 construct: made in house; host or cells: MMP-2-transfected p2AHT2 cells
T1 sequence (P08253 110-660): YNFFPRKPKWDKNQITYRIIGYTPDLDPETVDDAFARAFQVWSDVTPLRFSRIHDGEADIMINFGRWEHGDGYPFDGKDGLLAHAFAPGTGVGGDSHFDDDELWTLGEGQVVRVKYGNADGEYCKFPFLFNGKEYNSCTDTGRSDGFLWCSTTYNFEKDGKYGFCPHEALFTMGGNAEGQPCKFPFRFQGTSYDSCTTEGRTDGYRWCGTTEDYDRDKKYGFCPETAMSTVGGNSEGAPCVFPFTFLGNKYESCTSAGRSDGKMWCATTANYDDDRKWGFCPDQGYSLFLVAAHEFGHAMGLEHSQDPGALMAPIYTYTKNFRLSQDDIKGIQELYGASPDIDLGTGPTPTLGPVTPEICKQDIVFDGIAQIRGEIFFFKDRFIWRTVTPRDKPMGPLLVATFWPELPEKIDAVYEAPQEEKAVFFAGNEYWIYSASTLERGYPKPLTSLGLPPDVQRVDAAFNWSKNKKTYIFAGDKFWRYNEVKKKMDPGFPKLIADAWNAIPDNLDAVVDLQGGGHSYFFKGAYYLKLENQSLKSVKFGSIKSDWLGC
In words: In vitro MMP inhibition, Ki determination (fluorogenic substrate II). Format: biochemical. The settings on record: value not in parenthesis; read-out: MMP-2 Ki.

In another test the target is T2, MMP-9 (Homo sapiens, UniProt P14780).
T2 construct: made in house; host or cells: MMP-9-transfected HT1080 cells (spent media)
Described as above. The format is biochemical. The conditions noted are these: value not in parenthesis. In outline:
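HT1080-derived MMP-9, activated with APMA, trypsin or MMP-3, incubated 1 hr at room temperature with inhibitor and 4 μM fluorogenic substrate II (at or below Km) in pH 7.5 Tris/NaCl/CaCl2 buffer; ex 330/em 420 nm. Ki from Morrison-equation regression, without substrate correction.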

T2 sequence (P14780 107-707 limits assumed): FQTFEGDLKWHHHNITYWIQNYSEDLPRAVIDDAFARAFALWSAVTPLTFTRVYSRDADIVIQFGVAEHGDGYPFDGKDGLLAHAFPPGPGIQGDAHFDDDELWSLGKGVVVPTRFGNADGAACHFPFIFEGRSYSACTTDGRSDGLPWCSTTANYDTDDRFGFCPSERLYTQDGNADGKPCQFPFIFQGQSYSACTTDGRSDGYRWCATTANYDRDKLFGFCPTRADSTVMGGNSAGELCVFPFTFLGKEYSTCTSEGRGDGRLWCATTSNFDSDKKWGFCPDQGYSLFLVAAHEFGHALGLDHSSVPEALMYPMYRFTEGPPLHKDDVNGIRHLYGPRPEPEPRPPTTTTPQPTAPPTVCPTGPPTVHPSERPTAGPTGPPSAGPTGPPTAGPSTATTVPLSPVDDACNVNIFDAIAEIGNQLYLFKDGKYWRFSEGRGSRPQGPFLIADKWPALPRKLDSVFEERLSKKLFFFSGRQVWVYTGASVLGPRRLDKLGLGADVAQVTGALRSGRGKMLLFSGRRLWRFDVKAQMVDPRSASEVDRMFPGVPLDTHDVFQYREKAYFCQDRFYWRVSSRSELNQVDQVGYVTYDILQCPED

Take `CCCCCc1ccc(N2CCN(S(=O)(=O)C3(C(=O)NO)CCN(C(=O)CC)CC3)CC2)cc1` [Example 206]: the Ki at MMP-2 worked out at 0.63 nM; on MMP-9, 0.62 nM.
Regarding `COCCN1CCC(C(=O)NO)(S(=O)(=O)N2CCN(c3ccc(C)cc3)CC2)CC1` [Example 194], the values for the inhibition constant (Ki) at MMP-2 and at MMP-9 were 1.74 nM and 7.19 nM, respectively.
Taken in the same sequence, the figures for `Cc1ccc(N2CCC(C(=O)NO)(S(=O)(=O)N3CCN(c4ccc(OCCCC(F)(F)F)cc4)CC3)CC2)cc1` [Example 161] were 8.26 nM and 134 nM.
Taken in the same sequence, the figures for `CCCc1cnc(N2CCN(S(=O)(=O)C3(C(=O)NO)CCN(CCOC)CC3)CC2)nc1` [Example 178] were 7.88 nM and 2.23 nM.
Regarding `O=C(NO)C1(S(=O)(=O)N2CCN(c3ccc(OC(F)(F)F)cc3)CC2)CCN(C2CC2)CC1` [Example 203], the Ki at MMP-2 was 0.28 nM; at MMP-9, 2.5 nM.
Take `CCCc1nnc(N2CCN(S(=O)(=O)C3(C(=O)NO)CCOCC3)CC2)s1` [Example 216]: the figures for the Ki at MMP-2 and at MMP-9 were 214 nM and 596 nM, respectively.
In the same order, the values of `CCCCCc1ccc(N2CCN(S(=O)(=O)C3(C(=O)NO)CCOCC3)CC2)nn1` [Example 197] are 5.78 nM and 20.2 nM.
Taken in the same sequence, the figures for `CCCCOc1ccc(N2CCN(S(=O)(=O)C3(C(=O)NO)CCN(C(=O)c4ccco4)CC3)CC2)cc1` [Example 156] were 0.75 nM and 1.2 nM.
In the same order, the values of `CCCCOc1ccc(N2CCN(S(=O)(=O)C3(C(=O)NO)CCN(C(=O)c4cccs4)CC3)CC2)cc1` [Example 160] are 0.599 nM and 1.79 nM.
In the case of `COCCN1CCC(C(=O)NO)(S(=O)(=O)N2CCN(c3ccc(OCC(C)C)c(F)c3)CC2)CC1` [Example 166], the Ki was 0.72 nM on MMP-2 and 2.22 nM on MMP-9.
As for `COCCN1CCC(C(=O)NO)(S(=O)(=O)N2CCN(c3nc4ccccc4o3)CC2)CC1` [Example 196], the Ki on MMP-2 was 25.1 nM; at MMP-9, 79.6 nM.
In the same order, the values of `CCCCOc1ccc(N2CCN(S(=O)(=O)C3(C(=O)NO)CCN(C(=O)N(C(C)C)C(C)C)CC3)CC2)cc1` [Example 244] are 1.57 nM and 3.9 nM.
In the same order, the values of `COCCN1CCC(C(=O)NO)(S(=O)(=O)N2CCN(c3ccc(CC(C)C)cc3)CC2)CC1` [Example 192] are 1.9 nM and 9.11 nM.
In the same order, the values of `CCC(C)Cc1ccc(N2CCN(S(=O)(=O)C3(C(=O)NO)CCN(CCOC)CC3)CC2)cc1` (centres unmarked) [Example 190] are 1.49 nM and 3.76 nM.
For the compound `CCCc1ccc(N2CCN(S(=O)(=O)C3(C(=O)NO)CCN(CCOC)CC3)CC2)cc1` [Example 200], the Ki is 0.524 nM on MMP-2 and 0.28 nM at MMP-9.
Take `CCCCCc1cnc(N2CCN(S(=O)(=O)C3(C(=O)NO)CCOCC3)CC2)cn1` [Example 219]: the Ki on MMP-2 was 2.5 nM; at MMP-9, 0.46 nM.
In the case of `CCCCOc1ccc(N2CCN(S(=O)(=O)C3(C(=O)NO)CCN(Cc4ncc[nH]4)CC3)CC2)cc1` [Example 247], the Ki at MMP-2 worked out at 0.686 nM; at MMP-9, 0.718 nM.
As to `CCCCOc1ccc(N2CCN(S(=O)(=O)C3(C(=O)NO)CCN(c4cccc(C)c4)CC3)CC2)cc1` [Example 226], the Ki amounted to 10.4 nM at MMP-2 and 19 nM on MMP-9.
In the same order, the values of `CCCCOc1ccc(N2CCN(S(=O)(=O)C3(C(=O)NO)CCN(CCOC)CC3)CC2)cn1` [Example 164] are 28.6 nM and 7.53 nM.
Regarding `CCCCOc1ccc(N2CCN(S(=O)(=O)C3(C(=O)NO)CCN(C(=O)N4CCN(C)CC4)CC3)CC2)cc1` [Example 230], the results for the Ki at MMP-2 and at MMP-9 were 0.46 nM and 0.87 nM, respectively.
In the same order, the values of `O=C(NO)C1(S(=O)(=O)N2CCN(c3ccccn3)CC2)CCOCC1` [Example 169] are 1.09 nM and 4.99 nM.
In the same order, the values of `O=C(NO)C1(S(=O)(=O)N2CCN(c3ccc(SC(F)(F)F)cc3)CC2)CCOCC1` [Example 170] are 0.24 nM and 17.1 nM.
For `CCCCc1ccc(N2CCN(S(=O)(=O)C(C)C(=O)NO)CC2)nc1` (centres unmarked) [Example 217], the Ki worked out at 0.29 nM on MMP-2 and 0.45 nM at MMP-9.
Regarding `COCCSc1ccc(N2CCN(S(=O)(=O)C3(C(=O)NO)CCOCC3)CC2)cc1` [Example 227], the Ki on MMP-2 amounted to 2.47 nM; on MMP-9, 17.2 nM.
Consider `CCCCc1nnc(N2CCN(S(=O)(=O)C3(C(=O)NO)CCOCC3)CC2)s1` [Example 214], for which the Ki came out at 102 nM on MMP-2 and 220 nM on MMP-9.
As for `O=C(NO)C1(S(=O)(=O)N2CCN(c3ccc4c(c3)OC(F)(F)C(F)(F)O4)CC2)CCOCC1` [Example 67], the Ki was determined as 50.5 nM on MMP-2 and 1380 nM at MMP-9.
`COCCN1CCC(C(=O)NO)(S(=O)(=O)N2CCN(c3ccccc3)CC2)CC1` [Example 195]: the Ki worked out at 6.17 nM on MMP-2 and 23.2 nM at MMP-9.
Taken in the same sequence, the figures for `CCCCCc1ccc(N2CCN(S(=O)(=O)C3(C(=O)NO)CCN(C(C)=O)CC3)CC2)cc1` [Example 239] were 0.54 nM and 0.46 nM.
In the same order, the values of `Cc1ccc(-c2ccc(N3CCN(S(=O)(=O)C4(C(=O)NO)CCOCC4)CC3)cc2)cc1` [Example 207] are 2.02 nM and 12.3 nM.
Taken in the same sequence, the figures for `CCCCOc1ccc(N2CCN(S(=O)(=O)C3(C(=O)NO)CCN(c4ccc(C#N)cc4)CC3)CC2)cc1` [Example 225] were 9.28 nM and 28.1 nM.
With `CCCCCc1ccc(N2CCN(S(=O)(=O)C3(C(=O)NO)CCOCC3)CC2)nc1` [Example 167], the figures for the Ki at MMP-2 and on MMP-9 were 0.11 nM and 0.2 nM, respectively.
Consider `CCCCOc1ccc(N2CCN(S(=O)(=O)C3(C(=O)NO)CCN(Cc4ccc(C)o4)CC3)CC2)cc1` [Example 246], for which the figures for the Ki on MMP-2 and on MMP-9 were 1.2 nM and 1.74 nM, respectively.
Take `CCCCOc1ccc(N2CCN(S(=O)(=O)C3(C(=O)NO)CCN(Cc4nccn4C)CC3)CC2)cc1` [Example 245]: the Ki on MMP-2 turned out to be 0.475 nM; on MMP-9 it was 0.588 nM.
`CCCCOc1ccc(N2CCN(S(=O)(=O)C3(C(=O)NO)CCN(c4ccc(N(C)C)cc4)CC3)CC2)cc1` [Example 241]: the Ki at MMP-2 was 3.64 nM; at MMP-9, 4.74 nM.
In the same order, the values of `COCCN1CCC(C(=O)NO)(S(=O)(=O)N2CCN(c3ccc(C(C)=O)cc3)CC2)CC1` [Example 174] are 2.13 nM and 28.9 nM.
In the same order, the values of `CCCCOc1ccc(N2CCN(S(=O)(=O)C3(C(=O)NO)CC3)CC2)cc1` [Example 63] are 6.77 nM and 7.71 nM.
Taken in the same sequence, the figures for `O=C(NO)C1(S(=O)(=O)N2CCN(c3ccc(OCCN4CCCC4)cc3)CC2)CCOCC1` [Example 162] were 18.4 nM and 402 nM.
As to `COCCN1CCC(C(=O)NO)(S(=O)(=O)N2CCN(c3ccc(Br)cc3)CC2)CC1` [Example 201], the Ki on MMP-2 amounted to 0.521 nM; at MMP-9, 3.48 nM.
Taken in the same sequence, the figures for `CCCCOc1ccc(N2CCN(S(=O)(=O)C3(C(=O)NO)CCN(C(=O)N4CCCC4)CC3)CC2)cc1` [Example 231] were 1.32 nM and 0.71 nM.
Taken in the same sequence, the figures for `CCCCOc1ccc(N2CCN(S(=O)(=O)C3(C(=O)NO)CCN(c4ccc5c(c4)OCO5)CC3)CC2)cc1` [Example 221] were 8.53 nM and 14.6 nM.

Broadly, the Ki is the equilibrium dissociation constant of an inhibitor or competing ligand from its target.
